Results reported in the supplement of paper PMC11061612.

Assays:
Assay in all cases: combination Emax (second highest fraction inhibited in the dose matrix, 72 h); higher = more inhibition; extreme values may be limits of the assay
[1] = system: SW837 (Colorectal Carcinoma)
Outline: (§1)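 Bliss excess equals the observed combination effect minus the expected value EA + EB − EA·EB, where EA and EB are the effects of each agent alone. Combination Emax is the second-highest inhibition within the matrix. Inhibition was scaled from CellTiter-Glo 2.0 luminescence, with 0 set by vehicle wells and 1 by blank wells, after 72 hours of two-drug dosing of cells plated in 1536-well plates.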

[2] = system: HL-60 (Acute Myeloid Leukemia)
Outline: as §1

[3] = system: DND-41 (T-Lymphoblastic Leukemia)
Outline: as §1

[4] = system: TOV-112D (Ovarian Carcinoma)
Outline: as §1

[5] = system: MS751 (Cervical Carcinoma)
Outline: as §1

[6] = system: DiFi (Colorectal Carcinoma)
Outline: as §1

[7] = system: MKN28 (Gastric Carcinoma)
Outline: as §1

[8] = system: L-540 (Hodgkin's Lymphoma)
Outline: as §1

[9] = system: MOLT-16 (T-Lymphoblastic Leukemia)
Outline: as §1

[10] = system: CAMA-1 (Breast Carcinoma)
Outline: as §1

[11] = system: SU-DHL-8 (B-Cell Non-Hodgkin's Lymphoma)
Outline: as §1

WIL2-NS (Non-Cancerous) = system: WIL2-NS (Non-Cancerous)
Outline: as §1

[12] = system: KYSE-180 (Esophageal Squamous Cell Carcinoma)
Outline: as §1

NCI-H2818 (Mesothelioma) = system: NCI-H2818 (Mesothelioma)
Outline: as §1

TC-71 (Ewing's Sarcoma) = system: TC-71 (Ewing's Sarcoma)
Outline: as §1

[13] = system: BFTC-905 (Bladder Carcinoma)
Outline: as §1

WM-115 (Melanoma) = system: WM-115 (Melanoma)
Outline: as §1

[14] = system: TE-6 (Esophageal Squamous Cell Carcinoma)
Outline: as §1

[15] = system: EVSA-T (Breast Carcinoma)
Outline: as §1

[16] = system: MFM-223 (Breast Carcinoma)
Outline: as §1

Structure (SMILES) | combination Emax [1] | combination Emax [2] | combination Emax [3] | combination Emax [4] | combination Emax [5] | combination Emax [6] | combination Emax [7] | combination Emax [8] | combination Emax [9] | combination Emax [10] | combination Emax [11] | combination Emax (WIL2-NS (Non-Cancerous)) | combination Emax [12] | combination Emax (NCI-H2818 (Mesothelioma)) | combination Emax (TC-71 (Ewing's Sarcoma)) | combination Emax [13] | combination Emax (WM-115 (Melanoma)) | combination Emax [14] | combination Emax [15] | combination Emax [16]
COc1nnc2ccc(N3CCC(c4ccc(OCCN5CCN(C)C(=O)[C@H]5C)cc4)CC3)nn12 [AZD5153] + C[C@@H]1COCCN1C2=NC(=NC(=C2)C3(CC3)[S@](=N)(=O)C)C4=C5C=CNC5=NC=C4 [AZD6738] (first compound max 1 µM, 7x7, partner max 10 µM) | 0.756 | 0.985 | 0.979 | 0.849 | 0.911 | 0.844 | 0.51 | 0.913 | 1 | 0.661 | 0.996 | 0.935 | 0.591 | 0.281 | 0.997 | 0.802 | 0.481 | 0.79 | 0.977 | 0.734
COc1nnc2ccc(N3CCC(c4ccc(OCCN5CCN(C)C(=O)[C@H]5C)cc4)CC3)nn12 [AZD5153] + Cc1c2c(nn1C)CSCc1cc(n(C)n1)CSc1cc(c3ccccc3c1)OCCCc1c(C(=O)O)n(C)c3c-2c(Cl)ccc13 [AZD5991] (first compound max 1 µM, 7x7, partner max 1 µM) | 0.571 | 1 | 0.845 | 0.986 | 0.919 | 0.768 | 0.462 | 1 | 1 | 0.951 | 0.998 | 0.849 | 0.513 | 0.441 | 0.996 | 0.746 | 0.707 | 0.77 | 1 | 0.587
COc1nnc2ccc(N3CCC(c4ccc(OCCN5CCN(C)C(=O)[C@H]5C)cc4)CC3)nn12 [AZD5153] + Cn1cnc2c(F)c(Nc3ccc(Br)cc3Cl)c(C(=O)NOCCO)cc21 [Selumetinib] (first compound max 1 µM, 7x7, partner max 10 µM) | 0.753 | 0.966 | 0.893 | 0.684 | 0.849 | 0.962 | 0.416 | 0.628 | 0.949 | 0.506 | 0.955 | 0.881 | 0.401 | 0.27 | 0.762 | 0.873 | 0.832 | 0.711 | 0.942 | 0.507
Cc1c2c(nn1C)CSCc1cc(n(C)n1)CSc1cc(c3ccccc3c1)OCCCc1c(C(=O)O)n(C)c3c-2c(Cl)ccc13 [AZD5991] + C1CN(CCC1(C(=O)N[C@@H](CCO)C2=CC=C(C=C2)Cl)N)C3=NC=NC4=C3C=CN4 [Capivasertib] (first compound max 1 µM, 7x7, partner max 3 µM) | 0.121 | 1 | 0.111 | 0.407 | 0.855 | 0.438 | 0.12 | 1 | 1 | 0.994 | 0.673 | 0.666 | 0.922 | 0.258 | 0.47 | 0.206 | 0.584 | 0.811 | 1 | 0.788
Cc1c2c(nn1C)CSCc1cc(n(C)n1)CSc1cc(c3ccccc3c1)OCCCc1c(C(=O)O)n(C)c3c-2c(Cl)ccc13 [AZD5991] + C=CCn1c(=O)c2cnc(Nc3ccc(N4CCN(C)CC4)cc3)nc2n1-c1cccc(C(C)(C)O)n1 [AZD1775] (first compound max 1 µM, partner max 1 µM) | 0.406 | 1 | 0.875 | 0.714 | 0.9 | 0.856 | 0.572 | 1 | 1 | 0.635 | 1 | 0.963 | 0.95 | 0.519 | 0.578 | 0.673 | 0.34 | 0.773 | 1 | 0.562
Cc1c2c(nn1C)CSCc1cc(n(C)n1)CSc1cc(c3ccccc3c1)OCCCc1c(C(=O)O)n(C)c3c-2c(Cl)ccc13 [AZD5991] + CC1(C)CCC(CN2CCN(c3ccc(C(=O)NS(=O)(=O)c4ccc(NCC5CCOCC5)c([N+](=O)[O-])c4)c(Oc4cnc5[nH]ccc5c4)c3)CC2)=C(c2ccc(Cl)cc2)C1 [Venetoclax] (first compound max 1 µM, 7x7, partner max 1 µM) | 0.184 | 1 | 0.418 | 0.777 | 0.812 | 0.624 | 0.126 | 1 | 1 | 0.934 | 0.861 | 0.23 | 0.922 | 0.387 | 0.831 | 0.604 | 0.59 | 0.677 | 1 | 0.276
Cc1c2c(nn1C)CSCc1cc(n(C)n1)CSc1cc(c3ccccc3c1)OCCCc1c(C(=O)O)n(C)c3c-2c(Cl)ccc13 [AZD5991] + CCN(CCO)CCCOc1ccc2c(Nc3cc(CC(=O)Nc4cccc(F)c4)[nH]n3)ncnc2c1 [AZD2811] (first compound max 1 µM, 7x7, partner max 1 µM) | 0.231 | 1 | 0.21 | 0.868 | 0.855 | 0.859 | 0.329 | 1 | 1 | 0.914 | 0.931 | 0.339 | 0.942 | 0.287 | 0.848 | 0.794 | 0.232 | 0.715 | 1 | 0.574
Cc1c2c(nn1C)CSCc1cc(n(C)n1)CSc1cc(c3ccccc3c1)OCCCc1c(C(=O)O)n(C)c3c-2c(Cl)ccc13 [AZD5991] + CN(C)CCCOc1ccc(-c2ccc3ncc4c(c3c2)n(C2CCOCC2)c(=O)n4C)cn1 [AZD0156] (first compound max 1 µM, 7x7, partner max 1 µM) | 0.208 | 1 | 0.158 | 0.551 | 0.859 | 0.252 | 0.275 | 1 | 1 | 0.555 | 0.692 | 0.388 | 0.934 | 0.355 | 0.463 | 0.273 | 0.244 | 0.792 | 1 | 0.238
Cc1c2c(nn1C)CSCc1cc(n(C)n1)CSc1cc(c3ccccc3c1)OCCCc1c(C(=O)O)n(C)c3c-2c(Cl)ccc13 [AZD5991] + C[C@@H]1COCCN1C2=NC(=NC(=C2)C3(CC3)[S@](=N)(=O)C)C4=C5C=CNC5=NC=C4 [AZD6738] (first compound max 1 µM, 7x7, partner max 10 µM) | 0.354 | 1 | 0.9 | 0.963 | 0.901 | 0.923 | 0.405 | 1 | 1 | 0.751 | 1 | 0.969 | 0.979 | 0.496 | 0.987 | 0.862 | 0.471 | 0.817 | 1 | 0.824
Cc1c2c(nn1C)CSCc1cc(n(C)n1)CSc1cc(c3ccccc3c1)OCCCc1c(C(=O)O)n(C)c3c-2c(Cl)ccc13 [AZD5991] + C[C@@H](Nc1cc(F)cc(F)c1)c1cc(C(=O)N(C)C)cc2c(=O)cc(N3CCOCC3)oc12 [AZD8186] (first compound max 1 µM, 7x7, partner max 3 µM) | 0.188 | 1 | 0.0838 | 0.35 | 0.851 | 0.35 | 0.232 | 1 | 1 | 0.98 | 0.688 | 0.337 | 0.877 | 0.387 | 0.573 | 0.289 | 0.656 | 0.677 | 1 | 0.258
Cc1c2c(nn1C)CSCc1cc(n(C)n1)CSc1cc(c3ccccc3c1)OCCCc1c(C(=O)O)n(C)c3c-2c(Cl)ccc13 [AZD5991] + Cc1cc2ncnn2cc1Nc1ncc2c(n1)n(C1CCOCC1)c(=O)n2C [AZD7648] (first compound max 1 µM, 7x7, partner max 10 µM) | 0.128 | 1 | 0.164 | 0.492 | 0.829 | 0.319 | 0.25 | 1 | 1 | 0.742 | 0.684 | 0.41 | 0.9 | 0.48 | 0.48 | 0.211 | 0.357 | 0.683 | 1 | 0.288
Cc1c2c(nn1C)CSCc1cc(n(C)n1)CSc1cc(c3ccccc3c1)OCCCc1c(C(=O)O)n(C)c3c-2c(Cl)ccc13 [AZD5991] + Cn1cnc2c(F)c(Nc3ccc(Br)cc3Cl)c(C(=O)NOCCO)cc21 [Selumetinib] (first compound max 1 µM, 7x7, partner max 3 µM) | 0.325 | 1 | 0.181 | 0.414 | 0.896 | 0.875 | 0.387 | 1 | 1 | 0.509 | 0.655 | 0.236 | 0.848 | 0.293 | 0.578 | 0.751 | 0.68 | 0.62 | 1 | 0.282
